The results in this text go back to patent US9006442B2, “Cannabinoid receptor modulators” (Lupin Limited, priority 2011, dated 2015).

In this assay the target is hCB2 (Homo sapiens, UniProt P34972). In words: cAMP determination in functional hCB2-CHO stable cells (HTRF). Type of assay: cell-based. Here is the method:
In-Vitro Assay Method for Determination of cAMP in Functional hCB2—CHO Stable Cells:
Recombinant CHO-hCB2 cells (procured from Perkin Elmer Inc. USA) were propagated and maintained in Ham's F-12 complete medium containing 10% heat inactivated FBS (Sigma.UK) and 1× penstrep. For assay, 0.1×10^6 to 1.0×10^6 CHO-hCB2 cells were seeded in T-25 flask and grown to mid-log phase in culture media without antibiotics for 2-3 days. […] The test is performed in 96^1/2 area black well plates. For agonist testing, 20 μl cells/well were mixed with 20 μl of sample and 10 μl of forskolin (with final concentration of 10 μM) and incubated for 20 to 40 min at room temperature in incubator. The plate was then processed for the cAMP determination using cAMP Femto-2 HTRF kit (Cisbio, Germany) as per the manual.
The concentration of compound required to stimulate a half-maximal response (EC50) was determined using the GraphPad Prism software (version 5).

[1] abbreviates: CHO-hCB2 cells, cAMP, forskolin 10 μM, agonist testing, read-out: EC50 Range.

Read-outs that look alike come from different tables or passages of the source.

Chain of hCB2 (P34972 whole entry): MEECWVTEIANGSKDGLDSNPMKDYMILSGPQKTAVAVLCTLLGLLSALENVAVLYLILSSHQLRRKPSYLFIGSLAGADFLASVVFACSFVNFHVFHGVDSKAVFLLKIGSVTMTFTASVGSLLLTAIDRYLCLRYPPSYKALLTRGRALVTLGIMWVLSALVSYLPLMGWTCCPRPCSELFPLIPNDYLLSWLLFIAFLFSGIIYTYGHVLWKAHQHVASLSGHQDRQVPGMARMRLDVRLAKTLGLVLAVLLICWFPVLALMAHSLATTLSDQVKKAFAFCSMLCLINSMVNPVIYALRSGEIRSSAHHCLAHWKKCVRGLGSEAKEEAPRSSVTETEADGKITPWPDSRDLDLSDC

Regarding `Cc1cccc2c(Nc3cc(F)cc(F)c3)ncc(C(=O)N3CCOCC3)c12` [Example-3, (1-((3,5-Difluorophenyl)amino)-5-methylisoquinolin-4-yl)(morpholino)methanone], the concentration giving a half-maximal response (EC50) under setting [1] was below 10 nM.
As for `Cc1cccc2c(Nc3ccc(F)cc3)ncc(C(=O)N3CCOCC3)c12` [Example-5, (1-((4-Fluorophenyl)amino)-5-methylisoquinolin-4-yl)(morpholino)methanone], the concentration giving a half-maximal response (EC50) under setting [1] lay within 10 to 1000 nM.
Take `Cc1cccc2c(Nc3ccc(F)c(C(F)(F)F)c3)ncc(C(=O)N3CCOCC3)c12` [Example-6, (1-((4-Fluoro-3-(trifluoromethyl)phenyl)amino)-5-methylisoquinolin-4-yl)(morpholino)methanone]: the EC50 under setting [1] was below 10 nM.
On the same count and under the same terms, the same measure for `Cc1cccc2c(Nc3ccc(F)cc3F)ncc(C(=O)N3CCOCC3)c12` [Example-7, (1-((2,4-Difluorophenyl)amino)-5-methylisoquinolin-4-yl)(morpholino)methanone]: 10 to 1000 nM.
Compound `Cc1cccc2c(Nc3cccc(CF)c3)ncc(C(=O)N3CCOCC3)c12` [Example-12, (1-(((3-Fluoromethyl)phenyl)amino)-5-methylisoquinolin-4-yl)(morpholino)methanone] showed an EC50 of 10 to 1000 nM.
`Cc1cccc2c(Nc3cccc(F)c3)ncc(C(=O)N3CCCCC3)c12` [Example-21, (1-((3-Fluorophenyl)amino)-5-methylisoquinolin-4-yl)(piperidino)methanone] had a concentration giving a half-maximal response (EC50) below 10 nM.
Compound `Cc1cccc2c(Nc3cccc(C(F)(F)F)c3)ncc(C(=O)N3CCCCC3)c12` [Example-23, (5-Methyl-1-(((3-trifluoromethyl)phenyl)amino)isoquinolin-4-yl)(piperidin-1-yl)methanone] gave an EC50 below 10 nM.
As to `Cc1cccc2c(Nc3cc(F)cc(F)c3)ncc(C(=O)N3CCCCC3)c12` [Example-24, (1-((3,5-Difluorophenyl)amino)-5-methylisoquinolin-4-yl)(piperidin-1-yl)methanone], the EC50 under setting [1] was below 10 nM.
As to `Cc1cccc2c(Nc3ccc(F)c(C(F)(F)F)c3)ncc(C(=O)N3CCCCC3)c12` [Example-27, (1-((4-Fluoro-3-(trifluoromethyl)phenyl)amino)-5-methylisoquinolin-4-yl)(piperidin-1-yl)methanone], the half-maximal effective concentration (EC50) was below 10 nM.
With `Cc1cccc2c(Nc3cc(F)c(F)cc3F)ncc(C(=O)N3CCCCC3)c12` [Example-28, (1-((2,4,5-Trifluorophenyl)amino)-5-methylisoquinolin-4-yl)(piperidin-1-yl)methanone], the concentration for a half-maximal effect (EC50) under setting [1] was below 10 nM.
On the same count and under the same terms, the same measure for `Cc1cccc2c(Nc3ccc(F)cc3F)ncc(C(=O)N3CCCCC3)c12` [Example-29, (1-((2,4-Difluorophenyl)amino)-5-methylisoquinolin-4-yl)(piperidin-1-yl)methanone]: below 10 nM.
Still for that read-out and setting: as for `Cc1cccc2c(Nc3cccc(F)c3F)ncc(C(=O)N3CCCCC3)c12` [Example-33, (1-((2,3-Difluorophenyl)amino)-5-methylisoquinolin-4-yl)(piperidin-1-yl)methanone], the figure is below 10 nM.
For `Cc1cccc2c(Nc3cc(F)ccc3F)ncc(C(=O)N3CCCCC3)c12` [Example-34, (1-((2,5-Difluorophenyl)amino)-5-methylisoquinolin-4-yl)(piperidin-1-yl)methanone], the EC50 under setting [1] is below 10 nM.
The same measure, in the same setting: as for `Cc1cccc2c(Nc3cccc(CF)c3)ncc(C(=O)N3CCCCC3)c12` [Example-37, (1-((3-(Fluoromethyl)phenyl)amino)-5-methylisoquinolin-4-yl)(piperidin-1-yl)methanone], the figure is below 10 nM.
In the case of `Cc1cccc2c(Nc3ccc(F)c(Cl)c3)ncc(C(=O)N3CC4CC(C3)O4)c12` [Example-60, 6-Oxa-3-azabicyclo[3.1.1]heptan-3-yl(1-((3-chloro-4-fluorophenyl)amino)-5-methylisoquinolin-4-yl)methanone], the 50% effective concentration (EC50) lay within 10 to 1000 nM.
In the case of `Cc1cccc2c(Nc3cccc(Cl)c3F)ncc(C(=O)N3CC4CC(C3)O4)c12` [Example-61, 6-Oxa-3-azabicyclo[3.1.1]heptan-3-yl(1-((3-chloro-2-fluorophenyl)amino)-5-methylisoquinolin-4-yl)methanone], the EC50 was below 10 nM.
Regarding `Cc1c(Cl)cccc1Nc1ncc(C(=O)N2CC3CC(C2)O3)c2c(C)cccc12` [Example-65, 6-Oxa-3-azabicyclo[3.1.1]heptan-3-yl(1-((3-chloro-2-methylphenyl)amino)-5-methylisoquinolin-4-yl)methanone], the EC50 was below 10 nM.
`Cc1cccc2c(Nc3cccc(Cl)c3)ncc(C(=O)N3CC4CC4C3)c12` (stereo not shown) [Example-75, 3-Azabicyclo[3.1.0]hexan-3-yl(1-((3-chlorophenyl)amino)-5-methylisoquinolin-4-yl)methanone]: the EC50 was below 10 nM.
In the case of `Cc1c(F)cccc1Nc1ncc(C(=O)N2CC3CC3C2)c2c(C)cccc12` (stereo not shown) [Example-77, 3-Azabicyclo[3.1.0]hexan-3-yl(1-((3-fluoro-2-methylphenyl)amino)-5-methylisoquinolin-4-yl)methanone], under setting [1], the EC50 is below 10 nM.
On to `Cc1cc(Nc2ncc(C(=O)N3CCOCC3)c3c(C)cccc23)ccc1F` [Example-85, (1-((4-Fluoro-3-methylphenyl)amino)-5-methylisoquinolin-4-yl)(morpholino)methanone], for which the EC50 under setting [1] was below 10 nM.
Compound `Cc1c(Cl)cccc1Nc1ncc(C(=O)N2CCOCC2)c2c(C)cccc12` [Example-87, (1-((3-Chloro-2-methylphenyl)amino)-5-methylisoquinolin-4-yl)(morpholino)methanone] registered a 50% effective concentration (EC50) below 10 nM.
As for `Cc1ccc(Cl)cc1Nc1ncc(C(=O)N2CCOCC2)c2c(C)cccc12` [Example-88, (1-((5-Chloro-2-methylphenyl)amino)-5-methylisoquinolin-4-yl)(morpholino)methanone], under setting [1], the concentration for a half-maximal effect (EC50) was below 10 nM.
For `Cc1cccc2c(Nc3ccc(Cl)cc3Cl)ncc(C(=O)N3CCOCC3)c12` [Example-90, (1-((2,4-Dichlorophenyl)amino)-5-methylisoquinolin-4-yl)(morpholino)methanone], the EC50 under setting [1] was below 10 nM.
Take `Cc1ccc(Nc2ncc(C(=O)N3CCCCC3)c3c(C)cccc23)cc1Cl` [Example-92, (1-((3-Chloro-4-methylphenyl)amino)-5-methylisoquinolin-4-yl)(piperidin-1-yl)methanone]: the EC50 was below 10 nM.
Same read-out and setting: the same measure for `Cc1cc(Nc2ncc(C(=O)N3CCCCC3)c3c(C)cccc23)ccc1F` [Example-94, (1-((4-Fluoro-3-methylphenyl)amino)-5-methylisoquinolin-4-yl)(piperidin-1-yl)methanone]: below 10 nM.
Regarding `Cc1c(F)cccc1Nc1ncc(C(=O)N2CCCCC2)c2c(C)cccc12` [Example-96, (1-((3-Fluoro-2-methylphenyl)amino)-5-methylisoquinolin-4-yl)(piperidin-1-yl)methanone], the EC50 was below 10 nM.
The same measure, in the same setting: as for `Cc1cccc2c(Nc3cccc(Cl)c3)ncc(C(=O)N3CCCC3)c12` [Example-102, (1-((3-Chlorophenyl)amino)-5-methylisoquinolin-4-yl)(pyrrolidin-1-yl)methanone], the figure is 10 to 1000 nM; as for `O=C(c1cnc(Nc2cccc(Cl)c2)c2cccc(C3CC3)c12)N1CCOCC1` [Example-114, (1-((3-Chlorophenyl)amino)-5-cyclopropylisoquinolin-4-yl)(morpholino)methanone], below 10 nM.
Consider `O=C(c1cnc(Nc2cccc(F)c2F)c2cccc(C3CC3)c12)N1CCOCC1` [Example-116], for which, under setting [1], the EC50 is below 10 nM.
As to `O=C(c1cnc(Nc2cccc(C(F)(F)F)c2)c2cccc(C3CC3)c12)N1CCOCC1` [Example-118, (5-Cyclopropyl-1-((3-(trifluoromethyl)phenyl)amino)isoquinolin-4-yl)(morpholino)methanone], the EC50 is below 10 nM.
Regarding `O=C(c1cnc(Nc2cccc(C(F)(F)F)c2F)c2cccc(C3CC3)c12)N1CCOCC1` [Example-119, (5-Cyclopropyl-1-((2-fluoro-3-(trifluoromethyl)phenyl)amino)isoquinolin-4-yl)(morpholino)methanone], the EC50 under setting [1] is below 10 nM.
On to `CCc1cccc2c(Nc3cccc(F)c3F)ncc(C(=O)N3CCCCC3)c12` [Example-124, (1-((2,3-Difluorophenyl)amino)-5-ethylisoquinolin-4-yl)(piperidin-1-yl)methanone], for which the EC50 under setting [1] is below 10 nM.
The compound `CCc1cccc2c(Nc3cccc(Cl)c3F)ncc(C(=O)N3CCCCC3)c12` [Example-128, (1-((3-Chloro-2-fluorophenyl)amino)-5-ethylisoquinolin-4-yl)(piperidin-1-yl)methanone] displayed an EC50 below 10 nM.
As for `CCc1cccc2c(Nc3cccc(C(F)(F)F)c3F)ncc(C(=O)N3CCCCC3)c12` [Example-129, (5-Ethyl-1-((2-Fluoro-3-(trifluoromethyl)phenyl)amino)isoquinolin-4-yl)(piperidin-1-yl)methanone], under setting [1], the 50% effective concentration (EC50) is below 10 nM.
The same measure, in the same setting: the same measure for `CCc1cccc2c(Nc3cccc(Cl)c3C)ncc(C(=O)N3CCCCC3)c12` [Example-131, (1-((3-Chloro-2-methylphenyl)amino)-5-ethylisoquinolin-4-yl)(piperidin-1-yl)methanone]: below 10 nM; for `Cc1cccc(Nc2ccc(C(=O)N3CCOCC3)c3c(C)cccc23)c1` [Example-150, (8-Methyl-4-(m-tolylamino)naphthalen-1-yl)(morpholino)methanone]: below 10 nM.
The compound `Cc1ccc(Nc2ccc(C(=O)N3CCOCC3)c3c(C)cccc23)cc1F` [Example-152, (4-((3-Fluoro-4-methylphenyl)amino)-8-methylnaphthalen-1-yl)(morpholino)methanone] had an EC50 below 10 nM.
